Test results as given in patent publication US20120172451A1, “CLEANING LIQUID” (priority 2010, published 2012).

Assay: pH measurement
Type: physicochemical
Text: All measurements of pH and temperature mentioned in this specification were taken on a Hanna Instruments Ltd. device, with the model no. HI98127 (a waterproof pH and ° C./° F. probe). The measurements of pH and temperature could be taken on other generally available pH and temperature probes.

pH (50 g/l at 20° C.) | pH (1 mol/L at 20° C.) | SMILES
1.8 |  | O=C(O)CC(O)(CC(=O)O)C(=O)O [citric acid]
 | around 1.08 | O=P(O)(O)O [phosphoric acid]
